Measurements published in patent US11129899B1, “Methotrexate derivatives and uses thereof” (S.S. Manufacturing Co., Ltd, priority 2021, dated 2021).

Tests used:
[1] = target: T1, Dihydrofolate reductase (DHFR) (Homo sapiens, UniProt P00374); assay: Dihydrofolate reductase (DHFR) inhibitor assay (Sigma-Aldrich DHFR assay kit); type: biochemical
T1 construct: purchased Sigma-Aldrich
T1 sequence (P00374 1-187): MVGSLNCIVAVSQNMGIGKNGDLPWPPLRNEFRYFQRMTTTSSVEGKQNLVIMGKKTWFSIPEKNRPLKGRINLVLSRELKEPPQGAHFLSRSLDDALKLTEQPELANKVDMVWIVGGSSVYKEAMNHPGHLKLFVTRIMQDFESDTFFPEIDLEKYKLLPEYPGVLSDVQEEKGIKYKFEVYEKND
Experimental: According to the supplier protocol, the activity of DHFR reductase was measured at […], every 15 seconds for 2.5 minutes, with the Biochrom Anthos 2010 microplate reader (Biochrom Ltd., Cambourne, Cambridge, UK). The enzymatic activity was calculated by the following formula: […]

MCF-7 cells = assay: cells; type: cell-based; details: Homo sapiens, MCF7, 24 h, read-out: IC50 (cytotoxicity)
Experimental: The human breast cancer cell line, MCF-7, was obtained from American Type Cell Collection (ATCC) (Rockville, Mo., U.S.A.). The cells were cultured to 70-80% confluence in Dulbecco's modified Eagle medium (DMEM) (Gibco, Grand Island, N.Y., U.S.A.) with 10% fetal bovine serum (FBS) (Gibco) at 37° C. and 5% CO2. MCF-7 cells were plated overnight in a 96-well plate (4,000 cells per well). […] Next, 10 μl/well of WST-1/ECS solution from the Quick Cell Proliferation Colorimetric Assay Kit (BioVision, Inc., Milptas, Calif., U.S.A.) was added, and the solution was incubated for 2 hours at 37° C. and 5% CO2. Absorbance was measured at 480 nm with the Biochrom Anthos 2010 microplate reader (Biochrom Ltd., Cambourne, Cambridge, UK). The half maximal inhibitory concentrations (IC50) were calculated from log-linear regression from the absorbance optical density (OD).

Lipid solubility in oil = type: physicochemical
Experimental: Embodied compound or Methrotrexate in DMSO (3 μg/μl) were dissolved in olive oil, canola oil and sunflower oil(Sigma-Aldrich (St. Louis, Mo., USA)) at 40° C. The suspended were vortexed and centrifuged at 3000 RPM, 10 mins periodically. Oil solvent volume was stepwise increased till completely soluble was observed and the soluble concentration were determined (Table 2). The solutions were left at 24° C. overnight and were centrifuged at 5000 RPM for 20 mins. Ten microliter of embodied compound in oils were added to 100 μl deionized (DI) water. The suspensions were vigorously vortex and left at room temperature.

SMILES	Dihydrofolate reductase (DHFR) activity ([1]; inhibitor 5 mM [sic]) [Unit/mgP]	Dihydrofolate reductase (DHFR) activity ([1]; inhibitor 5 mM [sic], % of no inhibitor) [%]	Dihydrofolate reductase (DHFR) activity ([1]; inhibitor 50 mM [sic]) [Unit/mgP]	Dihydrofolate reductase (DHFR) activity ([1]; inhibitor 50 mM [sic], % of no inhibitor) [%]	Dihydrofolate reductase (DHFR) activity ([1]; inhibitor 500 mM [sic]) [Unit/mgP]	Dihydrofolate reductase (DHFR) activity ([1]; inhibitor 500 mM [sic], % of no inhibitor) [%]	IC50 (MCF-7 cells) [mM]	Solubility in Oil (40° C.) (Lipid solubility in oil; Canola Oil)	Solubility in Oil (40° C.) (Lipid solubility in oil; Olive Oil)	Solubility in Oil (40° C.) (Lipid solubility in oil; Sunflower Oil)
CC(C)CCC[C@@H](C)[C@H]1CC[C@H]2[C@@H]3CC=C4C[C@@H](OC(=O)NCCCCNCCCNC(=O)[C@H](CCC(=O)O)NC(=O)c5ccc(N(C)Cc6cnc7nc(N)nc(N)c7n6)cc5)CC[C@]4(C)[C@H]3CC[C@]12C [Embodied compound, (4S)-4-{[3-({4-[({[(1R,3aS,3bS,7S,9aR,9bS,11aR)-9a,11a-dimethyl-1-[(2R)-6-methylheptan-2-yl]-1H,2H,3H,3aH,3bH,4H,6H,7H,8H,9H,9aH,9bH,10H,11H,11aH-cyclopenta[a]phenanthren-7-yl]oxy}carbonyl)amino]butyl}amino)propyl]carbamoyl}-4-[(4-{[(2,4-diaminopteridin-6-yl)methyl](methyl)amino}phenyl)formamido]butanoic acid]	1.261	8.41	0.561	3.74	0.561	3.74	0.06	81.3 mg/100 ml	48.1 mg/100 ml	103.6 mg/100 ml
CN(Cc1cnc2nc(N)nc(N)c2n1)c1ccc(C(=O)N[C@@H](CCC(=O)O)C(=O)O)cc1 [MTX, (2S)-2-[(4-{[(2,4-diaminopteridin-6-yl)methyl](methyl)amino}phenyl)formamido]pentanedioic acid, reference compound]	–	–	–	–	–	–	3.27	less than 0.1 mg/100 ml	less than 0.1 mg/100 ml	less than 0.1 mg/100 ml
